In US20260176320A1, “MODULATORS OF G-PROTEIN COUPLED RECEPTORS” (priority 2018, published 2026):
Read-outs that look alike come from different tables or passages of the source. Square brackets hold non-standard residues; d marks the D form. Peptide text beside a SMILES is read from it. * marks the point of attachment. X1 = O=C(CSCC(=O)*)NCCN1C(=O)c2ccccc2C1=O; Aib = CC(C)(N)C(=O)O

What was measured:
[1] = molecular target: T1, GIP-R (Homo sapiens, UniProt P48546); assay: HitHunter cAMP assay (GIP-R); assay type: cell-based; conditions: cAMP; for Emax: read-out: (Emax) GIP-R
T1 sequence (P48546 22-466): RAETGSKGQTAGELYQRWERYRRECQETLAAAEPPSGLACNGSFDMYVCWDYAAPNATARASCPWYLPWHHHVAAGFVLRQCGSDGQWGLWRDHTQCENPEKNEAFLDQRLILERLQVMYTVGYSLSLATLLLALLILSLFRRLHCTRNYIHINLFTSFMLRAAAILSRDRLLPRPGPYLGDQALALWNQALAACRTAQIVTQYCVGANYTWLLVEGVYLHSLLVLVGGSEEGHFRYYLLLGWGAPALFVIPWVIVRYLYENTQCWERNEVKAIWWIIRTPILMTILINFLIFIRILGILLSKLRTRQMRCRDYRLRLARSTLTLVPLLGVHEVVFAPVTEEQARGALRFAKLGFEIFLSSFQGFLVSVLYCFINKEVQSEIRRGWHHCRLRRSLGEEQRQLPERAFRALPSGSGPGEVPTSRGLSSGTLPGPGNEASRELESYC
Method: (§1) Suspension cells were harvested and resuspended in 1×HBSS (+10 mM HEPES, 625 μM IBMX, 0.2% BSA) according to the following procedure: 5 μL of 2× cell suspension+1× antibody were added to each well, where the optimal cell density was 10,000 cells per well in a low volume 384-well plate. Agonist serial dilutions in a separate 384 well dilution plate in a 22-point series of 2× dilutions of agonist in DMSO were performed as follows. 80 μL of the highest concentration of Agonist/DMSO was added to well No. 1. 40 μL was removed from well No. 1 and added it to well No. 2, followed by gentle mixing. […] This process was repeated until well No. 22. Additional serial dilutions for additional agonists were set up in a similar manner. 50 nL of each 2× agonist serial dilution was added in duplicate to the designated agonist rows of the assay plate using the Labcyte ECHO. Assay plate was incubated for 30 minutes at room temperature. Following agonist incubation, 5 μL of cAMP Antibody Reagent was added to all wells. […] Plates were spun down briefly. Assay plate was incubated for 1 hour at room temperature in the dark for the immunocompetition reaction to occur. […] Plates were spun down briefly. Assay plate was incubated O/N at room temperature in the dark. Samples were read on Tecan i-control plate reader using luminescence mode with 300 ms integration time. Data analysis was performed using GraphPad Prism.

[2] = molecular target: GLP-1R (Homo sapiens, UniProt P43220); assay: HitHunter cAMP assay (GLP-1R); assay type: cell-based; conditions: cAMP; for Emax: read-out: (Emax) GLP-1R
Sequence of GLP-1R (P43220 24-463): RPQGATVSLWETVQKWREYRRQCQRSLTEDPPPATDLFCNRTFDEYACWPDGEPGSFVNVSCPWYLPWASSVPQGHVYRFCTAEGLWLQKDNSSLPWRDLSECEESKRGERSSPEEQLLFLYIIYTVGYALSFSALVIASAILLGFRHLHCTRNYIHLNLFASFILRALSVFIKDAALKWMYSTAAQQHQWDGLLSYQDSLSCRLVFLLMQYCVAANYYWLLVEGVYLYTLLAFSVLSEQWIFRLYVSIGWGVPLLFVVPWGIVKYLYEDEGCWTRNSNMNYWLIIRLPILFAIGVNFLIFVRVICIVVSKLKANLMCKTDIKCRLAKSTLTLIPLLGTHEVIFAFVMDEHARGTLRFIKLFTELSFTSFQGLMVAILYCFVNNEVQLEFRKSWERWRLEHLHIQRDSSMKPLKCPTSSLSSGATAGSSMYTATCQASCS
Method: as §1

[3] = Table 3A, read-out: EC50 GIP-R/nM
[4] = Table 3A, read-out: EC50 GLP-1R/nM

| Structure (SMILES) | EC50 ([1]; Table 3, read-out: EC50 GIP-R/nM) [nM] | EC50 [1, 3] [nM] | Emax at 1 µM ([1]; read-out: (Emax) GIP-R at 1 μM, Table 3, at 1 μM) [%] | Emax ([2]; Table 3) [%] | EC50 ([2]; Table 3, read-out: EC50 GLP-1R/nM) [nM] | Emax ([2]; Table 3A) [%] | EC50 [2, 4] [nM] | EC50 ([1]; EC50 GIP-R/nM, Table 3) [nM] | EC50 ([1]; EC50 GIP-R/nM, Table 3A) [nM] | Emax ([1]; Table 3) [%] | Emax ([1]; Table 3A) [%] | EC50 ([2]; EC50 GLP-1R/nM, Table 3) [nM] | EC50 ([2]; EC50 GLP-1R/nM, Table 3A) [nM] |
| --- | --- | --- | --- | --- | --- | --- | --- | --- | --- | --- | --- | --- | --- |
| CC[C@H](C)[C@H](NC(=O)[C@H](CO)NC(=O)[C@H](Cc1ccc(O)cc1)NC(=O)[C@H](CC(=O)O)NC(=O)[C@H](CO)NC(=O)[C@@H](NC(=O)[C@H](Cc1ccccc1)NC(=O)[C@@H](NC(=O)CNC(=O)[C@H](CCC(=O)O)NC(=O)CS(=O)(=O)CC(=O)NCCN1C(=O)CSC1=O)[C@@H](C)O)[C@@H](C)O)C(=O)N[C@@H](Cc1ccc(O)cc1)C(=O)N[C@@H](CC(C)C)C(=O)N[C@@H](CC(=O)O)C(=O)N[C@@H](CCCCN)C(=O)N[C@@H](CCC(N)=O)C(=O)N[C@@H](C)C(=O)N[C@@H](C)C(=O)NC(C)(C)C(=O)N[C@@H](CCC(=O)O)C(=O)N[C@@H](Cc1ccccc1)C(=O)N[C@H](C(=O)N[C@@H](CC(N)=O)C(=O)N[C@@H](Cc1c[nH]c2ccccc12)C(=O)N[C@@H](CC(C)C)C(=O)N[C@@H](CC(C)C)C(=O)N[C@@H](C)C(=O)NCC(=O)NCC(=O)N1CCC[C@H]1C(=O)N[C@@H](CO)C(=O)N[C@@H](CO)C(=O)NCC(=O)N[C@@H](C)C(=O)N1CCC[C@H]1C(=O)N1CCC[C@H]1C(=O)N1CCC[C@H]1C(=O)N[C@@H](CO)C(=O)N[C@@H](CCCCN)C(N)=O)C(C)C [Compound 168] | > 1000 | > 1000 | 6 to 14 | 92 | 1 to 10 | 92 | 1 to 10 |  |  |  |  |  |  |
| CC[C@H](C)[C@H](NC(=O)[C@H](CO)NC(=O)[C@H](Cc1ccc(O)cc1)NC(=O)[C@H](CC(=O)O)NC(=O)[C@H](CO)NC(=O)[C@@H](NC(=O)[C@H](Cc1ccccc1)NC(=O)[C@@H](NC(=O)CNC(=O)[C@H](CCC(=O)O)NC(=O)CSCC(=O)NCCN1C(=O)c2ccccc2C1=O)[C@@H](C)O)[C@@H](C)O)C(=O)N[C@@H](Cc1ccc(O)cc1)C(=O)N[C@@H](CC(C)C)C(=O)N[C@@H](CC(=O)O)C(=O)N[C@@H](CCCCN)C(=O)N[C@@H](CCC(N)=O)C(=O)N[C@@H](C)C(=O)N[C@@H](C)C(=O)NC(C)(C)C(=O)N[C@@H](CCC(=O)O)C(=O)N[C@@H](Cc1ccccc1)C(=O)N[C@H](C(=O)N[C@@H](CCC(=O)O)C(=O)N[C@@H](Cc1c[nH]c2ccccc12)C(=O)N[C@@H](CC(C)C)C(=O)N[C@@H](CC(C)C)C(=O)N[C@@H](C)C(=O)NCC(=O)NCC(=O)N1CCC[C@H]1C(=O)N[C@@H](CO)C(=O)N[C@@H](CO)C(=O)NCC(=O)N[C@@H](C)C(=O)N1CCC[C@H]1C(=O)N1CCC[C@H]1C(=O)N1CCC[C@H]1C(=O)N[C@@H](CO)C(=O)N[C@@H](CCCCN)C(N)=O)C(C)C [Compound 149] (X1-EGTFTSDYSIYLDKQAA[Aib]EFVEWLLAGGPSSGAPPPSK-NH2) |  |  |  | 86 to 92 |  | 86 to 92 |  | < 0.1 | < 0.1 | 113 | 113 | 1 to 10 | 1 to 10 |
| CCCCCCCCCCCCCCCC(=O)N[C@@H](CCC(=O)NCCCC[C@H](NC(=O)[C@H](CO)NC(=O)[C@@H]1CCCN1C(=O)[C@@H]1CCCN1C(=O)[C@@H]1CCCN1C(=O)[C@H](C)NC(=O)CNC(=O)[C@H](CO)NC(=O)[C@H](CO)NC(=O)[C@@H]1CCCN1C(=O)CNC(=O)CNC(=O)[C@H](C)NC(=O)[C@H](CC(C)C)NC(=O)[C@H](CC(C)C)NC(=O)[C@H](Cc1c[nH]c2ccccc12)NC(=O)[C@H](CC(N)=O)NC(=O)[C@@H](NC(=O)[C@H](Cc1ccccc1)NC(=O)[C@H](CCC(=O)O)NC(=O)C(C)(C)NC(=O)[C@H](C)NC(=O)[C@H](C)NC(=O)[C@H](CCC(N)=O)NC(=O)[C@H](CCCCN)NC(=O)[C@H](CC(=O)O)NC(=O)[C@H](CC(C)C)NC(=O)[C@H](Cc1ccc(O)cc1)NC(=O)[C@@H](NC(=O)[C@H](CO)NC(=O)[C@H](Cc1ccc(O)cc1)NC(=O)[C@H](CC(=O)O)NC(=O)[C@H](CO)NC(=O)[C@@H](NC(=O)[C@H](Cc1ccccc1)NC(=O)[C@@H](NC(=O)CNC(=O)[C@H](CCC(=O)O)NC(=O)CSCC(=O)NCCN1C(=O)CC[C@@H]1C)[C@@H](C)O)[C@@H](C)O)[C@@H](C)CC)C(C)C)C(N)=O)C(=O)O (single isomer, unassigned) [Compound 75] |  |  |  | 99 |  | 99 |  |  |  | 39 | 39 |  |  |
| CC[C@H](C)[C@H](NC(=O)[C@H](CO)NC(=O)[C@H](Cc1ccc(O)cc1)NC(=O)[C@H](CC(=O)O)NC(=O)[C@H](CO)NC(=O)[C@@H](NC(=O)[C@H](Cc1ccccc1)NC(=O)[C@@H](NC(=O)CNC(=O)[C@H](CCC(=O)O)NC(=O)CSCC(=O)NCCN1C(=O)[C@@H]2[C@H](C1=O)C2(C)C)[C@@H](C)O)[C@@H](C)O)C(=O)N[C@@H](Cc1ccc(O)cc1)C(=O)N[C@@H](CC(C)C)C(=O)N[C@@H](CC(=O)O)C(=O)N[C@@H](CCCCN)C(=O)N[C@@H](CCC(N)=O)C(=O)N[C@@H](C)C(=O)N[C@@H](C)C(=O)NC(C)(C)C(=O)N[C@@H](CCC(=O)O)C(=O)N[C@@H](Cc1ccccc1)C(=O)N[C@H](C(=O)N[C@@H](CC(N)=O)C(=O)N[C@@H](Cc1c[nH]c2ccccc12)C(=O)N[C@@H](CC(C)C)C(=O)N[C@@H](CC(C)C)C(=O)N[C@@H](C)C(=O)NCC(=O)NCC(=O)N1CCC[C@H]1C(=O)N[C@@H](CO)C(=O)N[C@@H](CO)C(=O)NCC(=O)N[C@@H](C)C(=O)N1CCC[C@H]1C(=O)N1CCC[C@H]1C(=O)N1CCC[C@H]1C(=O)N[C@@H](CO)C(=O)N[C@@H](CCCCN)C(N)=O)C(C)C [Compound 110] |  |  |  | 88 |  | 88 |  | 10 to 100 | 10 to 100 | 33 | 33 | 10 to 100 | 10 to 100 |
| CCCCCCCCCCCCCCCC(=O)N[C@@H](CCC(=O)NCCCC[C@H](NC(=O)[C@H](C)NC(=O)[C@H](C)NC(=O)[C@H](CCC(N)=O)NC(=O)[C@H](CCCCN)NC(=O)[C@H](CC(=O)O)NC(=O)[C@H](CC(C)C)NC(=O)[C@H](Cc1ccc(O)cc1)NC(=O)[C@@H](NC(=O)[C@H](CO)NC(=O)[C@H](Cc1ccc(O)cc1)NC(=O)[C@H](CC(=O)O)NC(=O)[C@H](CO)NC(=O)[C@@H](NC(=O)[C@H](Cc1ccccc1)NC(=O)[C@@H](NC(=O)CNC(=O)[C@H](CCC(=O)O)NC(=O)CSCC(=O)NCCN1C(=O)CSC1=O)[C@@H](C)O)[C@@H](C)O)[C@@H](C)CC)C(=O)N[C@@H](CCC(=O)O)C(=O)N[C@@H](Cc1ccccc1)C(=O)N[C@H](C(=O)N[C@@H](CC(N)=O)C(=O)N[C@@H](Cc1c[nH]c2ccccc12)C(=O)N[C@@H](CC(C)C)C(=O)N[C@@H](CC(C)C)C(=O)N[C@@H](C)C(=O)NCC(=O)NCC(=O)N1CCC[C@H]1C(=O)N[C@@H](CO)C(=O)N[C@@H](CO)C(=O)NCC(=O)N[C@@H](C)C(=O)N1CCC[C@H]1C(=O)N1CCC[C@H]1C(=O)N1CCC[C@H]1C(=O)N[C@@H](CO)C(=O)N[C@@H](CCCCN)C(N)=O)C(C)C)C(=O)O [Compound 200] |  | 100 to 1000 |  |  |  | 89 | 10 to 100 |  |  |  | 66 |  |  |
